Source: US7642088B2, “Device for susceptibility testing of bacterial pathogens and vaccine strains in poultry” (Lohmann Animal Health GmbH & Co. KG, priority 2004, dated 2010)
Converted amounts (≈) assume the structure as drawn. Where two headings read alike, the source gives them in different places.

What was measured:
[1] = test system: Enterococcus faecalis ATCC 29212; conditions: taken from NCCLS, M31-A2, 2002; cited from earlier work
[2] = test system: Escherichia coli ATCC 25922; conditions: taken from NCCLS, M31-A2, 2002; cited from earlier work
[3] = test system: Staphylococcus aureus ATCC 29213; conditions: taken from NCCLS, M31-A2, 2002; cited from earlier work
[4] = test system: Enterococcus faecalis ATCC 29212; experiment: MIC range and interpretive result on gram-positive reference strain; assay type: cell-based; conditions: for Interpretive result: MIC range against breakpoints LB + UB; for MIC range: data validated by MERLIN Diagnostika GmbH
Description: (§1) Determining the susceptibility with the microtiter plate 1 depends on the rehydration of antibiotics by the addition of a standardised bacterial suspension. The result is measured after 18-24 hours incubation at 35-37° C. photometrically with MICRONAUT Skan or another suitable photometer and analysed with MICRONAUT Software or visually read and interpreted.
(§2) Test Procedure 1. Gram Preparation: • Gram-positive bacteria appear blue, gram-negative bacteria red. It is recomended that the gram stain is determined according to standard protocol or the recommendations on the manufacturer's kit. 2. Inoculum Production • Prepare a test tube with 5 ml NaCl 0.9% pH 5.5 to 6.5. • Remove several individually located colonies of a pure culture which is 18-24 hours old from the blood agar (without additives). • Homogenise the colonies well in 5 ml NaCl 0.9% until the turbidity corresponds to a McFarland of 0.5. 3. Inoculation in Broth • 3.1 Mueller-Hinton broth or modified ISO-Sensitest broth. • For gram-negative bacteria, 50 μl of the bacterial suspension is pipetted into 11 ml Mueller-Hinton II broth or modified ISO-Sensitest broth and well homogenised. • For gram-positive bacteria, 100 μl of the bacterial suspension is pipetted into 11 ml Mueller-Hinton II broth or modified ISO-Sensitest broth and well homogenised. • 3.2H-Broth • For fastidious bacteria, 200 μl of the bacterial suspension is transferred into 11 ml preheated H-Broth and homogenised. 4. Inoculation (Broth-Microdilution) • Remove microtiter plate from the individual packaging max. 30 minutes before inoculation and dispose of the dessicant. • Label test plate. • Dispense the prepared suspension according to the plate layout into a 2-channel reservoir. • The inoculation of the microtiter plate is carried out manually with a multi-channel pipette, 100 μl per well. 5. Sealing and Incubation • 5.1 Mueller-Hinton II broth or modified ISO-Sensitest broth • After inoculating seal the test plates with an unperforated adhesive film or cover with an unused microtiter plate (max. 5 test plates stacked). • Incubate test plate 18-24 hours at 35-37° C. • 5.2H-Broth • After inoculating the test plates cover with an unused microtiter plate or with a perforated cover film. • Incubate test plate 22 to 24 hours at 35 to 37° C. in the incubator with CO2 gassing. 6. Reading • Remove adhesive film. • Wipe test plate from below. • Reading of test plate with photometer or visually. 7. Analysis • The bacterial growth is determined using a photometric measurement at a wave length of 620 nm or 690 nm—according to the broth used. • The result is analysed, interpreted and checked for its plausibility by means of MICRONAUT Software. The growth control must be overgrown (turbid), otherwise the test must be repeated. With visual readout the results should be recorded on a plate layout plan. The test result can be seen on the screen or on the findings report. 8. Interpretation of the Results
(§3) Breakpoint Interpretation • For antibiotics which are tested in four or fewer consecutive concentrations or in non-consecutive concentrations, interpreting categories are determined, namely susceptible, intermediate and resistant, on the basis of low and upper breakpoint MIC values (See attachment: Tables IIA and IIB, Tables IIIA, IIIB, IIIC and IIID and Table IV). The lower breakpoint (LB) is represented by the MIC value which prevents sufficient and visible bacterial growth, ie the bacterial isolate is susceptible to the antibiotic. […] Using MICRONAUT Software, MIC values can be automatically analysed and interpreted for a given bacterial isolate and antibiotic. […]

[5] = test system: Staphylococcus aureus ATCC 29213; experiment: as above; assay type: cell-based; conditions: for Interpretive result: MIC range against breakpoints LB + UB; for MIC range: data validated by MERLIN Diagnostika GmbH
Description: as §1, §2, §3

[6] = test system: Escherichia coli ATCC 25922; experiment: MIC range and interpretive result on gram-negative reference strain; assay type: cell-based; conditions: for Interpretive result: MIC range against breakpoints LB + UB; for MIC range: data validated by MERLIN Diagnostika GmbH
Description: as §1, §2, §3

[7] = test system: S.E. Sm24/Rif12/Ssq (vaccine strain); experiment: Broth microdilution MIC, resistance marker discrimination, vaccine strain S.E. Sm24/Rif12/Ssq; assay type: cell-based, Salmonella Enteritidis; conditions: chicken, validated at Lohmann Animal Health
Description: as §1
(§4) Test Procedure 1. Gram Preparation: • Gram-positive bacteria appear blue, gram-negative bacteria red. It is recomended that the gram stain is determined according to standard protocol or the recommendations on the manufacturer's kit. 2. Inoculum Production • Prepare a test tube with 5 ml NaCl 0.9% pH 5.5 to 6.5. • Remove several individually located colonies of a pure culture which is 18-24 hours old from the blood agar (without additives). • Homogenise the colonies well in 5 ml NaCl 0.9% until the turbidity corresponds to a McFarland of 0.5. 3. […] Reading • Remove adhesive film. • Wipe test plate from below. • Reading of test plate with photometer or visually. […] Analysis • The bacterial growth is determined using a photometric measurement at a wave length of 620 nm or 690 nm—according to the broth used. • The result is analysed, interpreted and checked for its plausibility by means of MICRONAUT Software. […] With visual readout the results should be recorded on a plate layout plan. […]
as §3, with “IV).” for “IV). The lower breakpoint (LB) is represented by the MIC value which prevents sufficient and visible bacterial growth, ie the bacterial isolate is susceptible to the antibiotic.”

[8] = test system: S.E. Leipzig (field strain); experiment: Broth microdilution MIC, resistance marker discrimination, field strain S.E. Leipzig; assay type: cell-based, Salmonella Enteritidis; conditions: chicken, validated at Lohmann Animal Health
Description: as §1, §4
as §3, with “IV).” for “IV). The lower breakpoint (LB) is represented by the MIC value which prevents sufficient and visible bacterial growth, ie the bacterial isolate is susceptible to the antibiotic.”

[9] = test system: Pseudomonas aeruginosa ATCC 27853; conditions: taken from NCCLS, M31-A2, 2002; cited from earlier work
[10] = test system: Pseudomonas aeruginosa ATCC 27853; experiment: MIC range and interpretive result on gram-negative reference strain; assay type: cell-based; conditions: for Interpretive result: MIC range against breakpoints LB + UB; for MIC range: data validated by MERLIN Diagnostika GmbH
Description: as §1, §2, §3

[11] = test system: S.Tm. Nal2/Rif9/Rtt (vaccine strain); experiment: Broth microdilution MIC, resistance marker discrimination, vaccine strain S.Tm. Nal2/Rif9/Rtt; assay type: cell-based, Salmonella Typhimurium; conditions: chicken, validated at Lohmann Animal Health
Description: as §1
as §4, with “2.” for “2. Inoculum Production • Prepare a test tube with 5 ml NaCl 0.9% pH 5.5 to 6.5. • Remove several individually located colonies of a pure culture which is 18-24 hours old from the blood agar (without additives). • Homogenise the colonies well in 5 ml NaCl 0.9% until the turbidity corresponds to a McFarland of 0.5. 3.”
(§5) Breakpoint Interpretation • For antibiotics which are tested in four or fewer consecutive concentrations or in non-consecutive concentrations, interpreting categories are determined, namely susceptible, intermediate and resistant, on the basis of low and upper breakpoint MIC values (See attachment: Tables IIA and IIB, Tables IIIA, IIIB, IIIC and IIID and Table IV). […]

[12] = test system: S.Tm. Moskau 415 (field strain); experiment: Broth microdilution MIC, resistance marker discrimination, field strain S.Tm. Moskau 415; assay type: cell-based, Salmonella Typhimurium; conditions: chicken, validated at Lohmann Animal Health
Description: as §1
as §4, with “2.” for “2. Inoculum Production • Prepare a test tube with 5 ml NaCl 0.9% pH 5.5 to 6.5. • Remove several individually located colonies of a pure culture which is 18-24 hours old from the blood agar (without additives). • Homogenise the colonies well in 5 ml NaCl 0.9% until the turbidity corresponds to a McFarland of 0.5. 3.”
as §5

Molecule	MIC range [1] [µg/mL]	MIC range [2] [µg/mL]	MIC range [3] [µg/mL]	Interpretive result [4]	Interpretive result [5]	Interpretive result [6]	Interpretive result [10]	other results
CN[C@@H]1[C@H](O)[C@H](NC)[C@H]2O[C@@]3(O)C(=O)C[C@@H](C)O[C@H]3O[C@@H]2[C@H]1O [Spectinomycin]	64 to 256	8 to 64	64 to 256	R	R	S/R	–	–
[H]/N=C(/N)N[C@H]1[C@H](O)[C@@H](O)[C@H](O[C@@H]2O[C@@H](C)[C@](O)(C=O)[C@H]2O[C@@H]2O[C@@H](CO)[C@H](O)[C@@H](O)[C@@H]2NC)[C@@H](N/C(N)=N\[H])[C@@H]1O [Streptomycin]	–	–	–	–	–	–	–	MIC range [7]: >200 µg/mL; MIC range [8]: <200 µg/mL
CO/N=C(\C(=O)N[C@@H]1C(=O)N2C(C(=O)O)=C(CSC(=O)c3ccco3)CS[C@H]12)c1csc(N)n1 [Ceftiofur]	–	0.25 to 1	0.25 to 1	–	S	S	R	MIC range [9]: 16 to 64 µg/mL
CC1(C)S[C@@H]2[C@H](NC(=O)[C@H](N)c3ccccc3)C(=O)N2[C@H]1C(=O)O [Ampicillin]	0.5 to 2	2 to 8	–	S	–	S	–	–
C=C[C@]1(C)C[C@@H](OC(=O)CSCCN(CC)CC)[C@]2(C)[C@H](C)CC[C@]3(CCC(=O)[C@H]32)[C@@H](C)[C@@H]1O [Tiamulin]	–	–	0.5 to 2.0	–	S	–	–	–
CC[C@H]1OC(=O)[C@H](C)[C@@H](O[C@H]2C[C@@](C)(OC)[C@@H](O)[C@H](C)O2)[C@H](C)[C@@H](O[C@@H]2O[C@H](C)C[C@H](N(C)C)[C@H]2O)[C@](C)(O)C[C@@H](C)C(=O)[C@H](C)[C@@H](O)[C@]1(C)O [Erythromycin]	1 to 4	–	0.12 to 1	I	S/I	–	–	MIC range [11]: ≦5 μg/ml; MIC range [12]: ≧20 μg/ml; MIC range [7]: ≦5 μg/ml; MIC range [8]: ≧20 μg/ml
Neomycin	–	–	–	R	S	S	–	MIC range [4]: 16 to 64 µg/mL; MIC range [5]: 0.5 to 2 µg/mL; MIC range [6]: 0.5 to 2 µg/mL
Colistin	–	–	–	–	R	S	S/I	MIC range [5]: 64 µg/mL; MIC range [6]: ≦0.5 μg/ml; MIC range [10]: 0.5 to 2 µg/mL
Cc1onc(-c2ccccc2)c1C(=O)N[C@@H]1C(=O)N2[C@@H]1SC(C)(C)[C@@H]2C(=O)O [Oxacillin]	8 to 32	–	0.12 to 0.5	R	S	–	–	–
Gentamicin	4 to 16	0.25 to 1	0.12 to 1	S/I/R	S	S	S	MIC range [9]: 0.5 to 2 µg/mL
CCC[C@@H]1C[C@@H](C(=O)N[C@@H]([C@H]2O[C@H](SC)[C@H](O)[C@@H](O)[C@H]2O)[C@@H](C)O)N(C)C1 [Lincomycin]	–	–	–	R	S/I	–	R	MIC range [4]: 8 to 32 µg/mL; MIC range [5]: 0.5 to 2 µg/mL; MIC range [10]: 32 µg/mL (≈ 78.7 µM)
CCN1CCN(c2cc3c(cc2F)c(=O)c(C(=O)O)cn3C2CC2)CC1 [Enrofloxacin]	0.12 to 1	0.008 to 0.03	0.03 to 0.12	S/I	S	S	I/R	MIC range [9]: 1 to 4 µg/mL
CN(C)[C@@H]1C(O)=C(C(N)=O)C(=O)[C@@]2(O)C(O)=C3C(=O)c4c(O)cccc4[C@@](C)(O)[C@H]3C[C@@H]12 [Tetracycline]	–	–	–	I/R	S	S	R	–
CO[C@H]1/C=C/O[C@@]2(C)Oc3c(C)c(O)c4c(O)c(c(/C=N/N5CCN(C)CC5)c(O)c4c3C2=O)NC(=O)/C(C)=C\C=C\[C@H](C)[C@H](O)[C@@H](C)[C@@H](O)[C@@H](C)[C@H](OC(C)=O)[C@@H]1C [Rifampicin]	–	–	–	–	–	–	–	MIC range [11]: >50 µg/mL; MIC range [12]: <50 µg/mL; MIC range [7]: >50 µg/mL; MIC range [8]: <50 µg/mL
CC1(C)S[C@@H]2[C@H](NC(=O)Cc3ccccc3)C(=O)N2[C@H]1C(=O)O [Penicillin G]	1 to 4	–	0.25 to 2	S	R	–	–	–
